Results published in publication PMC11013038, “Design, Synthesis, and Evaluation of B-(Trifluoromethyl)phenyl Phosphine–Borane Derivatives as Novel Progesterone Receptor Antagonists” (Molecules, 2024).

Columns and labels:
[1] = molecular target: T1, progesterone receptor (PR) (Homo sapiens, UniProt P06401); assay: T47D alkaline phosphatase assay, PR antagonistic activity in the presence of 1 nM P4; assay type: cell-based; details: for IC50: T47D cells, 1.0 nM P4, 48 h, mean ± SD from three independent experiments
T1 construct: alkaline phosphatase assay with the T47D human breast cancer cell line; endogenous in cells; host or cells: T47D
T1 sequence (P06401 1-933): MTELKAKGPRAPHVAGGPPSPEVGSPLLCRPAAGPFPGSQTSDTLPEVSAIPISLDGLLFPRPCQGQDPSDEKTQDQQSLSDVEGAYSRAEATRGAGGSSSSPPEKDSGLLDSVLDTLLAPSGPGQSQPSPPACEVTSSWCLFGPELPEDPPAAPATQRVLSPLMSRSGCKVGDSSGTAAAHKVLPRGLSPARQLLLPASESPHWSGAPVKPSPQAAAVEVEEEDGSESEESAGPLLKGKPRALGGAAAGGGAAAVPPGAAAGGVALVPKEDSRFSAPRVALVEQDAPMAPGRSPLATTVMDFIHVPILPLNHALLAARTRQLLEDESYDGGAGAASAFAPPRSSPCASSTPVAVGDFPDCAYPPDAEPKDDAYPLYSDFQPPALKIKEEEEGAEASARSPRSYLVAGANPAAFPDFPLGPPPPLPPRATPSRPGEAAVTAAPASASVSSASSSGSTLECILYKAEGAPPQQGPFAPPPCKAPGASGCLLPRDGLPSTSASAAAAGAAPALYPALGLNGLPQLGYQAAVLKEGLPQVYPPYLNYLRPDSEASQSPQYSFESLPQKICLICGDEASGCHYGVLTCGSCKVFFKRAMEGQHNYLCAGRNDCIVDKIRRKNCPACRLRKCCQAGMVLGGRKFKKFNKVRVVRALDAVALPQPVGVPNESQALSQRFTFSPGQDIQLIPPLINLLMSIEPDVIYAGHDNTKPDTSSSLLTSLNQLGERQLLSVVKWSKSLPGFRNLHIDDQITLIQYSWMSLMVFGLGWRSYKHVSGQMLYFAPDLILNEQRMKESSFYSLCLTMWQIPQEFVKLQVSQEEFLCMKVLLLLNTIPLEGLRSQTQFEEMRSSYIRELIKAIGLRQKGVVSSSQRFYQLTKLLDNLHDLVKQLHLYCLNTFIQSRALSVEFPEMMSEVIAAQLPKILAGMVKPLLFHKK
Procedure: The PR agonistic and antagonistic activities of the synthesized phosphine–borane derivatives were evaluated using an alkaline phosphatase assay with the T47D human breast cancer cell line. […] The basal alkaline phosphatase activity was also not affected by the tested compounds alone. […] The PR antagonistic activities of the compounds were assessed in the presence of 1 nM of P4 (5). We also calculated the molecular volume of each compound to investigate the structure–activity relationship (SAR). Table 2 summarizes the PR antagonistic activity and calculated volumes of the synthesized compounds. […] We investigated the binding affinity of the compounds toward the PR ligand-binding domain (LBD) using a fluorescence polarization assay system. […] We also investigated the activity of compounds 28 and 34 toward the androgen receptor (AR) by means of cell-proliferation promoting/inhibitory activity toward androgen-dependent SC-3 cells. […].
T47D alkaline phosphatase assays were performed as previously described, with minor modifications. Briefly, the human breast cancer cell line T47D (HMS LINCS database Accession Numbers: 50541) was routinely cultivated in RPMI 1640 medium with 10% FBS at 37 °C in a 5% CO2 humidified incubator. The cells were plated in 96-well plates and incubated overnight in a 5% CO2 humidified incubator at 37 °C. The next day, the cells were treated with a fresh medium containing the test compound in the presence of 1 nM of progesterone and further incubated for 48 h. The medium was aspirated, and the cells were fixed with 100 μL of 1.8% formalin–PBS. The fixed cells were washed with PBS, and 100 μL of an assay buffer (1 mg/mL p-nitrophenol phosphate in diethanolamine water solution, pH 9.0) was added. The mixture was incubated at room temperature for 2 h under light-shielded conditions. The absorbance was measured at 405 nm using a DTX 880 Multimode Detector (Beckman Coulter, Brea, CA, USA). All data points were measured in triplicate, and IC50 values were calculated from three independent experiments.

[2] = LogP (1-octanol/water partition coefficient) determined using HPLC; assay type: physicochemical; details: HPLC (OECD guideline), C18 column, methanol–water 75% (v/v), 40 °C, mean of triplicate
Procedure: Hydrophobicity is a key determinant of the activity and pharmacokinetics of biologically active compounds, and the octanol–water partition coefficient (P) and logarithm value (LogP) are widely used hydrophobicity parameters. The LogP values of the synthesized compounds were determined using HPLC [45, 46]. Table 1 summarizes the experimentally determined LogP values and calculated values. […] From the viewpoint of the phosphine structure, an increase in the number of carbon atoms increased hydrophobicity in a predictable manner.
The 1-octanol/water partition coefficient P was determined using HPLC based on the OECD Guideline for Testing Chemicals. A COSMOSIL Packed Column 5C18-MS-II (5 μm, 150 mm × 4.6 mm id, Nacalai Tesque, Inc., Kyoto, Japan) was fitted on an HPLC instrument (Multiwavelength Detector, MD-2010 Plus. JASCO, Tokyo, Japan) equipped with a pump (PU-2080, JASCO) and an oven (SSC-2120, Senshu Scientific Co., Ltd., Tokyo, Japan). The injection volume was 20 µL; the mobile phase was methanol–water 75% (v/v); and the flow rate was 1.0 mL/min in all cases. Compounds were detected by measuring the UV absorption at 240 nm. The temperature of the column was kept at 40.0 (± 0.1) °C during the measurement. The measurement was performed in triplicate, and the mean value was calculated. The dead time t0 was measured with thiourea as the unretained compound, and the capacity factor k was calculated using the equation logk = log (tr − t0/t0), where tr represents the retention time of the compound. A calibration graph was determined experimentally using reference compounds (4-methylphenol, 4-chlorophenol, 4-phenylphenol, diphenylether, fluoranthene, and dichlorodiphenyltrichloroethane) with known logP values. The LogP values of phosphine–boranes were calculated based on a calibration graph (LogP = 2.6269 logkw + 3.059, R^2 = 0.9915).

IC50 [1] | chromatographic logP [2] | potency relative to triisopropylphosphine derivative 32 ([1]; T47D alkaline phosphatase assay, comparison of IC50) | Compound
> 10000 nM | 3.65 |  | C[P+](C)(C)[BH2-]c1ccc(C(F)(F)F)cc1 [Compound 28, B-4-(Trifluoromethyl)phenyl Trimethylphosphine–Borane]
540 ± 90 nM | 5.32 | approximately three times more potent | FC(F)(F)c1ccc([BH2-][P+](C2CC2)(C2CC2)C2CC2)cc1 [Compound 34, B-4-(Trifluoromethyl)phenyl Tricyclopropylphosphine–Borane]
